{"source": "patent US20040105861A1", "about": "“Use of factor XIIIa inhibitors to treat atherosclerosis” (SmithKline Beecham Corporation, priority 1997, published 2004)", "target": "purified human Factor XIIIa (Homo sapiens, UniProt P00488)", "sequence (P00488 39-732 limits assumed)": "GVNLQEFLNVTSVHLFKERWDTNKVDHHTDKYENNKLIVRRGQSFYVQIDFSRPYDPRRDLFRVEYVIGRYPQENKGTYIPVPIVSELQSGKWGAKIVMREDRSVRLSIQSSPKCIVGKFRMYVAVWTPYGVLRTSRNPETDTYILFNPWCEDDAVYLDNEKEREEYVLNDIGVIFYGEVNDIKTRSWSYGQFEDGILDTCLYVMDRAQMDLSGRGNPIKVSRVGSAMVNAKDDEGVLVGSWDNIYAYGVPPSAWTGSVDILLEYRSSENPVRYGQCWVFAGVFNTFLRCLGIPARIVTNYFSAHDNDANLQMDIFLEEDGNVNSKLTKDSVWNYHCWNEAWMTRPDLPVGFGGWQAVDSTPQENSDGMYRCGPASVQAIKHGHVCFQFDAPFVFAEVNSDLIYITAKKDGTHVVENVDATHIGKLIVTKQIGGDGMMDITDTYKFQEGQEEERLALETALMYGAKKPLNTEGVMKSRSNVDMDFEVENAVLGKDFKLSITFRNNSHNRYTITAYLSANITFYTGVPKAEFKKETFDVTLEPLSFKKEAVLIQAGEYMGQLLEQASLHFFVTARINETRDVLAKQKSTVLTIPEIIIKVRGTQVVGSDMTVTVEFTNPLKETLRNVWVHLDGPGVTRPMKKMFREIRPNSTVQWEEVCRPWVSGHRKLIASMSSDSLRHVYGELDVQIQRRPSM", "conditions": "10 mM EDTA added in the presence of Factor XIIIa 30 U/ml; fibrinogen 100 μg/ml, Lp(a) 500 μg/ml, 37° C., 30 minutes to 6 hours", "method": "To determine if Factor XIIIa crosslinks Lp(a) with fibrinogen, Factor XIIIa was incubated with Lp(a) and fibrinogen in solution and then analyzed for Lp(a)-fibrinogen crosslinking over a time course ranging from 30 minutes to 6 hours. Briefly, purified human fibrinogen (Calbiochem, San Diego, Calif.), at a final concentration of 100 μg/ml, was incubated with purified human Lp(a) (Enzyme Research Laboratories, South Bend, Ind.) at a final concentration of 500 μg/ml, in the presence of purified human Factor XIIIa (Enzyme Research Laboratories, South Bend, Ind.) at 30 U/ml. As controls, Factor XIIIa was either omitted from the reaction or 10 mM EDTA was added in the presence of Factor XIIIa to inhibit Factor XIIIa activity. The reactions were conducted at 37° C. in a buffer of 40 mM Tris, 0.15 M NaCl, 5 mM dithiolthreitol, and 10 mM CaC12, at pH 8.3. Factor XIII was preactivated to Factor XIIIa immediately before each experiment by incubating Factor XIII with thrombin at 3 U/ml in 40 mM Tris and 0. 15 M NaCl, at pH 8.3 for 1 hour at room temperature. The activation procedure was stopped by adding hirudin at 100 U/ml (Sigma) to inhibit the thrombin. […]\nTo identify the presence of Lp(a) within the immunoprecipitated complexes, samples were analyzed by western blot using an antibody to Lp(a). […]", "data": [{"smiles": "O=C(O)CN(CCN(CC(=O)O)CC(=O)O)CC(=O)O", "note": "[EDTA]", "values": [{"measurement": "Lp(a) crosslinked with fibrinogen (Lp(a) in anti-fibrinogen immunoprecipitated material, western blot)", "value": "Lp(a) was not incorporated in the immunoprecipitated material"}]}]}
